Results as given in ChEMBL document CHEMBL5241084, “Non-carbohydrate strategies to inhibit lectin proteins with special emphasis on galectins” (Eur J Med Chem, 2021).
Starred links: 1 amine or outer side, 2 acyl side, 3 side chain; linkers in the order of their positions; H or OH if unused. Non-standard residues stand in square brackets, D forms with d. Residues, ends and D or L forms follow the SMILES beside them. X2 = O=C(CCc1cccc2c1Cc1c(CCN[*:1])cccc1-2)[*:2]; X3 = O=C(CCc1cccc2c1oc1c(CCN[*:1])cccc12)[*:2]; Nva = CCC[C@H](N)C(=O)O

What was measured:
[1] = molecular target: C-type lectin domain family 4 member K (Homo sapiens, UniProt Q9UJ71); experiment: Inhibition of human Langerin overexpressed in human Raji cells incubated for 30 mins by flow cytometry; type: cell-based
C-type lectin domain family 4 member K, sequence (Q9UJ71 whole entry, the tested form may be a part): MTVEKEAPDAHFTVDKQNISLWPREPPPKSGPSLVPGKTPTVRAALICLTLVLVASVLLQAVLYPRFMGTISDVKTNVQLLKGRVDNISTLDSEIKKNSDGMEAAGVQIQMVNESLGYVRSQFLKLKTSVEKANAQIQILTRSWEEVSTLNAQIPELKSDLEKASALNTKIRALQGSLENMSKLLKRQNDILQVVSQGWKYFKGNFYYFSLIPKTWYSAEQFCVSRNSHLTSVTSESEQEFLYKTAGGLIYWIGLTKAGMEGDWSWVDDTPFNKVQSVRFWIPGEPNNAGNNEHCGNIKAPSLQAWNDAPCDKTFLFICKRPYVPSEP

MDCK = experiment: Antimigratory activity against dog MDCK cells assessed as inhibition of cell migration preincubated for 0.5 hrs followed by wounding and measured after 24 hrs by wound closure assay; type: functional, cell-based; details: Canis lupus familiaris
P-selectin = molecular target: T1, P-selectin (Homo sapiens, UniProt P16109); experiment: Inhibition of P-selectin (unknown origin) incubated for 30 mins by ELISA
T1 sequence (P16109 whole entry): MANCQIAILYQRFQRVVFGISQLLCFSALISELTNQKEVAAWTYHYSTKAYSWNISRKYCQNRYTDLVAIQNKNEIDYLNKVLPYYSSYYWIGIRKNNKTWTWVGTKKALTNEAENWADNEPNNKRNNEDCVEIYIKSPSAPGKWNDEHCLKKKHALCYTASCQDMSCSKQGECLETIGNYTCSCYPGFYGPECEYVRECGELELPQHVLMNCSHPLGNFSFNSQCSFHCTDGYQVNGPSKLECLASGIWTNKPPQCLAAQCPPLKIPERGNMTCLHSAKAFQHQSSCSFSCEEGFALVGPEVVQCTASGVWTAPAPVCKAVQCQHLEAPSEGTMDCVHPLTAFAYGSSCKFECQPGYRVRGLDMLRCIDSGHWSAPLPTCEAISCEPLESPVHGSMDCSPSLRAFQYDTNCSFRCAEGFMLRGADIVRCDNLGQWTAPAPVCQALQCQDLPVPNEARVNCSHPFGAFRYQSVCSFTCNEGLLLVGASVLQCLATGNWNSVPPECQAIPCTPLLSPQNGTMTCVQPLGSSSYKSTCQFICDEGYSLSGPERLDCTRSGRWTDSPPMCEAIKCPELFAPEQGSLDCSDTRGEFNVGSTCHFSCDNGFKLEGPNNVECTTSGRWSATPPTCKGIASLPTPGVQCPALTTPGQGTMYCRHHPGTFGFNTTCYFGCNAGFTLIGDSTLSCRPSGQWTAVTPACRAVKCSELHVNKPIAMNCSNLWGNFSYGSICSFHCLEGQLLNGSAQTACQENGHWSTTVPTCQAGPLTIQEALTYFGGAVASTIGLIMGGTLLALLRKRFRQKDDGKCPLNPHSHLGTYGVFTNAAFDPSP

HUVEC = experiment: Antiproliferative activity against human HUVEC cells assessed as inhibition of basic fibroblast growth factor stimulated stimulated cell proliferation incubated for 72 hrs by CCK-8 assay; type: functional, cell-based
Galectin-1 [2] = molecular target: T2, Galectin-1 (Homo sapiens, UniProt P09382); experiment: Binding affinity to Gal-1 (unknown origin) by fluorescence spectroscopy
T2 sequence (P09382 whole entry): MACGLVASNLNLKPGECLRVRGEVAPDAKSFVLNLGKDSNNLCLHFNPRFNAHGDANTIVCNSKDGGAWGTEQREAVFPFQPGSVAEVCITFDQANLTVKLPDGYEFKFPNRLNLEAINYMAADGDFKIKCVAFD

MG-63 = experiment: Anticancer activity against human MG-63 cells assessed as reduction in cell viability incubated for 48 hrs by MTT assay; type: functional, cell-based; details: MG-63, 48 h
[3] = Anti-angiogenic activity in human MA148 cells xenografted in athymic nude mouse assesed as tumor growth inhibition at 10 mg/kg, sc weekly once for 28 days; type: functional; details: MA148, 672 h, time 28 day, read-out: TGI
NCI-H460 = experiment: Anticancer activity against human NCI-H460 cells assessed as reduction in cell viability incubated for 48 hrs by MTT assay; type: functional, cell-based; details: NCI-H460, 48 h
[4] = Anticancer activity against human MDA-MB-231 cells assessed as reduction in cell viability incubated for 48 hrs by MTT assay; type: functional, cell-based; details: MDA-MB-23, 48 h
A549 = experiment: Anticancer activity against human A549 cells assessed as reduction in cell viability incubated for 48 hrs by MTT assay; type: functional, cell-based; details: A549, 48 h
MCF7 = experiment: Anticancer activity against human MCF7 cells assessed as reduction in cell viability incubated for 48 hrs by MTT assay; type: functional, cell-based; details: MCF7, 48 h
Galectin-1 [5] = molecular target: T2, Galectin-1; experiment: Binding affinity to human Gal-1 assessed as decrease in Gal-1 levels by ELISA
DU-145 = experiment: Antiproliferative activity against human DU-145 cells assessed as reduction in cell proliferation incubated for 72 hrs by SRB assay; type: functional, cell-based; details: DU-145, 72 h
PC-3 = experiment: Antiproliferative activity against human PC-3 cells assessed as reduction in cell proliferation incubated for 72 hrs by SRB assay; type: functional, cell-based; details: PC-3, 72 h
SK-OV-3 = experiment: Anticancer activity against human SK-OV-3 cells assessed as reduction in cell viability and measured after 72 hrs by CellTiter-Glo reagent based assay; type: functional; details: SK-OV-3, 72 h
Galectin-1 [6] = molecular target: T2, Galectin-1; experiment: Binding affinity to Gal-1 (unknown origin) incubated for 30 mins by RP-HPLC analysis

Compound: Cc1n[nH]c(C)c1Cc1ccc(O)cc1
- IC50 [1]: 1030 µM

Compound: COc1c(C)c(OC)c2c(c1OCc1ccccc1)[C@H](COCc1ccccc1)N1[C@@H]3[C@H]4[C@H](C[C@H]([C@@H]1C#N)N4C)C(=O)N[C@H]23
- IC50 (MDCK): 32.5 µM

Compound: CCCCCCCCCCCCCCCCNC(=O)/C=C/c1ccc(-c2[nH]c(-c3ccc(C4=NNC(C=O)C4)cc3)nc2-c2ccc(/C=C/C(=O)O)cc2)cc1 (centres undefined)
- IC50 (P-selectin): 0.3 µM

Compound: CCN1CCN(CC(C)c2ccc(F)cc2)CC1 (centres undefined)
- IC50 [1]: 1150 µM

Compound: CCOC(=O)c1cc(C(F)(F)F)n[nH]1
- IC50 [1]: 580 µM

Compound: O=C(O)c1cccnc1Nc1cccc(C(F)(F)F)c1 [NIFLUMIC ACID]
- IC50 [1]: 590 µM

Compound: CC[C@H](C)[C@H](NC(=O)[C@H](C)NC(=O)CCc1cccc2c1oc1c(CCNC(=O)[C@H](CC(C)C)NC(=O)[C@H](CCCCN)NC(=O)[C@H](CCSC)NC(=O)[C@H](CCC(N)=O)NC(=O)[C@@H](NC(=O)[C@@H](N)CO)C(C)C)cccc12)C(=O)N[C@H](C(=O)N[C@@H](CCCCN)C(=O)N[C@@H](CC(C)C)C(=O)N[C@@H](CC(N)=O)C(=O)N[C@@H](C)C(=O)O)C(C)C (H-SVQMKL[X3]AIVKLNA-OH)
- IC50 (HUVEC): 5 µM

Compound: COc1ccc2c(c1)c(C/C=C(/O)c1cc3ccccc3oc1=O)cn2Cc1cccc(Cl)c1
- Ka (Galectin-1 [2]): 6.6 10^5/M

Compound: CC1CN(Cc2cc(=O)oc3cc(OCc4cn(Cc5ccc(Cl)cc5Cl)nn4)ccc23)CC(C)O1 (centres undefined)
- IC50 (MG-63): 0.8 µM

Compound: COc1cccc2c1[C@H](CO)N1[C@@H](C#N)[C@H]3C[C@@H](C(=O)O)[C@H]([C@@H]1C2)N3C
- IC50 (MDCK): 140 µM

Compound: H-ANIKLSVQMKLFKRHLKWKIIVKLNDGRELSLD-OH
- inhibition in vivo at 10 mg/kg [3]: 80%

Compound: Oc1cccc(-n2cc(COc3ccc(-c4nc5cc(Cl)ccc5n4Cc4ccccc4)cc3)nn2)c1
- IC50 (NCI-H460): 0.99 µM
- IC50 [4]: 0.94 µM
- IC50 (A549): 0.63 µM
- IC50 (MCF7): 1.3 µM

Compound: CCOC(=O)C1CCN(Cc2cc(=O)oc3cc(OCc4ccc([N+](=O)[O-])cc4)ccc23)CC1
- IC50 (Galectin-1 [5]): 100 µM
- IC50 (DU-145): 8.95 µM
- IC50 (PC-3): 7.45 µM

Compound: CC(=O)OCCN(CCOC(C)=O)c1ccc(-c2nc3cc(C(CC(N)=O)NC(=O)C(N)Cc4ccc(Cl)c(Cl)c4)ccc3n2Cc2ccc(F)c(F)c2)cc1 (centres undefined)
- IC50 (SK-OV-3): 15.7 µM

Compound: CCOC(=O)C1CCNC(=O)C1O (centres undefined)
- IC50 [1]: 1190 µM

Compound: CCOC(=O)c1sc(=O)[nH]c1C(F)(F)F
- IC50 [1]: 1060 µM

Compound: O=C(Nc1ccc(O)cc1)c1ccc(-c2nc3cc(Cl)ccc3n2Cc2ccccc2)cc1
- Activity (Galectin-1 [6]): 85.4%
- IC50 (MCF7): 7.01 µM

Compound: CCC[C@H](NC(=O)[C@H](CCC(N)=O)NC(=O)[C@@H](NC(=O)[C@@H](N)CO)C(C)C)C(=O)N[C@@H](CCCCN)C(=O)N[C@@H](CC(C)C)C(=O)NCCc1cccc2c1Cc1c(CCC(=O)N[C@H](C(=O)N[C@H](C(=O)N[C@H](C(=O)N[C@@H](CCCCN)C(=O)N[C@@H](CC(C)C)C(=O)N[C@@H](CC(N)=O)C(=O)N[C@@H](C)C(=O)O)C(C)C)[C@@H](C)CC)[C@@H](C)CC)cccc1-2 (H-SVQ[Nva]KL[X2]IIVKLNA-OH)
- IC50 (HUVEC): 10 µM
